Test results: patent publication US10576085B2, “Substituted aminopurine compounds, compositions thereof, and methods of treatment therewith” (Signal Pharmaceuticals, LLC, priority 2016, dated 2020)

Test system: cancer cell lines of Table 2
Experiment: Multiplexed cytotoxicity assay: apoptosis (activated caspase-3; Cal_X2, Cal_X5, Max_Fold_Change)
Type: cell-based
Protocol: Cells are grown in RPMI1640, 10% FBS, 2 mM L-alanyl-L-Glutamine, 1 mM Na pyruvate or a special medium in a humidified atmosphere of 5% CO2 at 37° C. Cells are seeded into 384-well plates and incubated in a humidified atmosphere of 5% CO2 at 37° C. Compounds are added 24 h post cell seeding. At the same time, a time zero untreated cell plate is generated. After a 72 hour incubation period, cells are fixed and stained with fluorescently labeled antibodies and nuclear dye to allow visualization of nuclei, apoptotic cells and mitotic cells. Apoptotic cells are detected using an anti-active caspase-3 antibody. Mitotic cells are detected using an anti phospho-histone-3 antibody. Compounds are serially diluted 3.16-fold and assayed over 10 concentrations in a final assay concentration of 0.1% DMSO from the highest test concentration of 10 μM. Automated fluorescence microscopy was carried out using a Molecular Devices ImageXpress Micro XL high-content imager, and images are collected with a 4× objective.
The activated caspase-3 marker labels cells from early to late stage apoptosis. Concentrations of test compound that cause a 5-fold induction in the caspase-3 signal (Cal_X5) indicate significant apoptosis induction. The maximal induction of caspase 3 by compound in comparison with DMSO control is reported as Max_Fold_Change.
In Another Experiment, Cells were Grown in RPMI1640, 10% FBS, 2 mM L-alanyl-L-Glutamine, 1 mM Na pyruvate or a special medium in a humidified atmosphere of 5% CO2 at 37° C. Cells were seeded into 384-well plates and incubated in a humidified atmosphere of 5% CO2 at 37° C. Compounds were added 24 h post cell seeding. At the same time, a time zero untreated cell plate was generated. After a 72 hour incubation period, cells were fixed and stained with fluorescently labeled antibodies and nuclear dye to allow visualization of nuclei, apoptotic cells and mitotic cells. Apoptotic cells were detected using an anti-active caspase-3 antibody. Mitotic cells were detected using an anti phospho-histone-3 antibody. Compounds were serially diluted 3.16-fold and assayed over 10 concentrations in a final assay concentration of 0.1% DMSO from the highest test concentration of 10 μM. Automated fluorescence microscopy was carried out using a Molecular Devices ImageXpress Micro XL high-content imager, and images were collected with a 4× objective.
The activated caspase-3 marker labels cells from early to late stage apoptosis. Concentrations of test compound that cause a 2-fold (Cal-X2) or 5-fold induction in the caspase-3 signal (Cal_X5) indicated significant apoptosis induction. The maximal induction of caspase 3 by compound in comparison with DMSO control was reported as Max_Fold_Change.

`C[C@]1(C(N)=O)CC[C@@H](n2c(Nc3c(Cl)cc(Cl)cc3Cl)nc3cnc(N[C@@H]4CCOC[C@H]4F)nc32)CC1` [Compound 1, cis-4-[2-{[(3S,4R)-3-fluorooxan-4-yl]amino}-8-(2,4,6-trichloroanilino)-9H-purin-9-yl]-1-methyl cyclohexane-1-carboxamide] was tested, and the CalX2 (HS611T, Lymphoma) was 2.8507 µM, the CalX5 (HS611T, Lymphoma) was 10 µM and the Max fold change (HS611T, Lymphoma) was 3.84. The CalX2 (HS688AT, Skin, Melanoma) was 10 µM, the CalX5 (HS688AT, Skin, Melanoma) was 10 µM and the Max fold change (HS688AT, Skin, Melanoma) was 1.61. It also gave a CalX2 (HS695T, Skin, Melanoma) of 0.0253 µM, a CalX5 (HS695T, Skin, Melanoma) of 0.0727 µM and a Max fold change (HS695T, Skin, Melanoma) of 22.05. It also gave a CalX2 (HS852T, Skin, Melanoma) of 0.05 µM, a CalX5 (HS852T, Skin, Melanoma) of 0.234 µM and a Max fold change (HS852T, Skin, Melanoma) of 6.51. For the same compound, the CalX2 (HT1197, Bladder) was 0.1601 µM, the CalX5 (HT1197, Bladder) was 10 µM and the Max fold change (HT1197, Bladder) was 4.16. For the same compound, the CalX2 (HT1376, Bladder) was 0.0524 µM, the CalX5 (HT1376, Bladder) was 0.167 µM and the Max fold change (HT1376, Bladder) was 10.87. For the same compound, the CalX2 (HT, Lymphoma) was 8.6354 µM, the CalX5 (HT, Lymphoma) was 10 µM and the Max fold change (HT, Lymphoma) was 2.44. For the same compound, the CalX2 (HUCCT1, Liver) was 0.0222 µM, the CalX5 (HUCCT1, Liver) was 0.0406 µM and the Max fold change (HUCCT1, Liver) was 11.54. The CalX2 (HUH6CLONE5, Liver) was 0.0631 µM, the CalX5 (HUH6CLONE5, Liver) was 0.302 µM and the Max fold change (HUH6CLONE5, Liver) was 8.25. It also gave a CalX2 (J82, Bladder) of 2.4365 µM, a CalX5 (J82, Bladder) of 10 µM and a Max fold change (J82, Bladder) of 3.17. The CalX2 (JEKO1, Lymphoma) was 4.3369 µM, the CalX5 (JEKO1, Lymphoma) was 10 µM and the Max fold change (JEKO1, Lymphoma) was 3.11. It also gave a CalX2 (JIYOYE, Lymphoma) of 4.4004 µM, a CalX5 (JIYOYE, Lymphoma) of 5.35 µM and a Max fold change (JIYOYE, Lymphoma) of 11.1. The CalX2 (JRT3T35, Leukemia) was 2.6364 µM, the CalX5 (JRT3T35, Leukemia) was 3.8 µM and the Max fold change (JRT3T35, Leukemia) was 14.26. It also gave a CalX2 (JURKAT, Leukemia) of 1.6173 µM, a CalX5 (JURKAT, Leukemia) of 3.28 µM and a Max fold change (JURKAT, Leukemia) of 14.48. For the same compound, the CalX2 (K562, Leukemia) was 2.9298 µM, the CalX5 (K562, Leukemia) was 4.86 µM and the Max fold change (K562, Leukemia) was 51.89. For the same compound, the CalX2 (KG1, Leukemia) was 2.5811 µM, the CalX5 (KG1, Leukemia) was 10 µM and the Max fold change (KG1, Leukemia) was 2.5. The CalX2 (KU812, Leukemia) was 0.03 µM, the CalX5 (KU812, Leukemia) was 8.02 µM and the Max fold change (KU812, Leukemia) was 5.63. The CalX2 (L428, Lymphoma) was 4.2384 µM, the CalX5 (L428, Lymphoma) was 5.88 µM and the Max fold change (L428, Lymphoma) was 7.51. It also gave a CalX2 (MC116, Lymphoma) of 2.8763 µM, a CalX5 (MC116, Lymphoma) of 5.18 µM and a Max fold change (MC116, Lymphoma) of 9.46. The CalX2 (MEG01, Leukemia) was 0.5718 µM, the CalX5 (MEG01, Leukemia) was 10 µM and the Max fold change (MEG01, Leukemia) was 2.77. It also gave a CalX2 (MHHPREB1, Leukemia) of 5.1142 µM, a CalX5 (MHHPREB1, Leukemia) of 7.66 µM and a Max fold change (MHHPREB1, Leukemia) of 11.43. For the same compound, the CalX2 (MOLT3, Leukemia) was 5.88 µM, the CalX5 (MOLT3, Leukemia) was 10 µM and the Max fold change (MOLT3, Leukemia) was 3.63. The CalX2 (MOLT16, Leukemia) was 2.4102 µM, the CalX5 (MOLT16, Leukemia) was 4.97 µM and the Max fold change (MOLT16, Leukemia) was 8.06. The CalX2 (MV411, Leukemia) was 0.0933 µM, the CalX5 (MV411, Leukemia) was 1.15 µM and the Max fold change (MV411, Leukemia) was 8.12. The CalX2 (MX1, Leukemia) was 1.1016 µM, the CalX5 (MX1, Leukemia) was 10 µM and the Max fold change (MX1, Leukemia) was 3.78. It also gave a CalX2 (NALM6, Leukemia) of 0.1241 µM, a CalX5 (NALM6, Leukemia) of 10 µM and a Max fold change (NALM6, Leukemia) of 5. It also gave a CalX2 (NAMALWA, Lymphoma) of 5.9431 µM, a CalX5 (NAMALWA, Lymphoma) of 10 µM and a Max fold change (NAMALWA, Lymphoma) of 2.68. It also gave a CalX2 (OCUG1, Liver) of 0.0848 µM, a CalX5 (OCUG1, Liver) of 0.49 µM and a Max fold change (OCUG1, Liver) of 5.49. The CalX2 (RAJI, Lymphoma) was 2.5564 µM, the CalX5 (RAJI, Lymphoma) was 4.07 µM and the Max fold change (RAJI, Lymphoma) was 24.81. It also gave a CalX2 (RAMOSRA1, Lymphoma) of 4.5496 µM, a CalX5 (RAMOSRA1, Lymphoma) of 7.39 µM and a Max fold change (RAMOSRA1, Lymphoma) of 25.1. The CalX2 (REC1, Lymphoma) was 10 µM, the CalX5 (REC1, Lymphoma) was 10 µM and the Max fold change (REC1, Lymphoma) was 1.86. It also gave a CalX2 (RPMI6666, Lymphoma) of 3.0419 µM, a CalX5 (RPMI6666, Lymphoma) of 4.37 µM and a Max fold change (RPMI6666, Lymphoma) of 26.35. The CalX2 (RS411, Leukemia) was 3.8025 µM, the CalX5 (RS411, Leukemia) was 8.4 µM and the Max fold change (RS411, Leukemia) was 5.83. The CalX2 (SCABER, Bladder) was 0.0086 µM, the CalX5 (SCABER, Bladder) was 0.0506 µM and the Max fold change (SCABER, Bladder) was 29.47. For the same compound, the CalX2 (SCC9, Head and Neck) was 0.6679 µM, the CalX5 (SCC9, Head and Neck) was 3.86 µM and the Max fold change (SCC9, Head and Neck) was 9.58. It also gave a CalX2 (SKNEP1, Kidney) of 10 µM, a CalX5 (SKNEP1, Kidney) of 10 µM and a Max fold change (SKNEP1, Kidney) of 1.15. For the same compound, the CalX2 (SNU423, Liver) was 0.0909 µM, the CalX5 (SNU423, Liver) was 1.65 µM and the Max fold change (SNU423, Liver) was 7.32. For the same compound, the CalX2 (SR, Lymphoma) was 1.2842 µM, the CalX5 (SR, Lymphoma) was 3.07 µM and the Max fold change (SR, Lymphoma) was 33.52. It also gave a CalX2 (ST486, Lymphoma) of 4.2422 µM, a CalX5 (ST486, Lymphoma) of 6.11 µM and a Max fold change (ST486, Lymphoma) of 10.85. For the same compound, the CalX2 (SUDHL4, Lymphoma) was 2.5668 µM, the CalX5 (SUDHL4, Lymphoma) was 4.83 µM and the Max fold change (SUDHL4, Lymphoma) was 10.75. For the same compound, the CalX2 (SUDHL5, Lymphoma) was 1.6359 µM, the CalX5 (SUDHL5, Lymphoma) was 4.54 µM and the Max fold change (SUDHL5, Lymphoma) was 10.37. It also gave a CalX2 (SUDHL8, Lymphoma) of 1.2344 µM, a CalX5 (SUDHL8, Lymphoma) of 4.19 µM and a Max fold change (SUDHL8, Lymphoma) of 10.79. For the same compound, the CalX2 (SUDHL10, Lymphoma) was 3.611 µM, the CalX5 (SUDHL10, Lymphoma) was 4.87 µM and the Max fold change (SUDHL10, Lymphoma) was 11.63. For the same compound, the CalX2 (SUPT1, Lymphoma) was 4.5476 µM, the CalX5 (SUPT1, Lymphoma) was 9.21 µM and the Max fold change (SUPT1, Lymphoma) was 5.76. The CalX2 (T24, Bladder) was 4.5443 µM, the CalX5 (T24, Bladder) was 10 µM and the Max fold change (T24, Bladder) was 2.61. It also gave a CalX2 (TCCSUP, Bladder) of 5.6435 µM, a CalX5 (TCCSUP, Bladder) of 10 µM and a Max fold change (TCCSUP, Bladder) of 3.67. The CalX2 (TF1, Leukemia) was 0.006 µM, the CalX5 (TF1, Leukemia) was 0.0296 µM and the Max fold change (TF1, Leukemia) was 16.1. It also gave a CalX2 (THP1, Leukemia) of 0.132 µM, a CalX5 (THP1, Leukemia) of 3.9 µM and a Max fold change (THP1, Leukemia) of 6.3. The CalX2 (TUR, Lymphoma) was 0.6984 µM, the CalX5 (TUR, Lymphoma) was 3.45 µM and the Max fold change (TUR, Lymphoma) was 17.35. The CalX2 (UMUC3, Bladder) was 2.7934 µM, the CalX5 (UMUC3, Bladder) was 5.76 µM and the Max fold change (UMUC3, Bladder) was 6.56. For the same compound, the Induction of apoptosis (variety of cancer cell lines) was “induce apoptosis”.
